Source: ChEMBL document CHEMBL1143861, “Chemical modulators of heat shock protein 70 (Hsp70) by sequential, microwave-accelerated reactions on solid phase” (Bioorg Med Chem Lett, 2008)
Calls of active or inactive are those of the source. The rule behind the calls is not given here.

What was measured:
[1] = Activity against bovine Hsp70 ATPase activity; set-up: species or system Bos taurus
[2] = Activity against Escherichia coli DnaK ATPase activity
[3] = tested on: Escherichia coli; test: (§1) Activation of Escherichia coli DnaK ATPase activity
[4] = Activation of bovine Hsp70 ATPase activity; set-up: species or system Bos taurus
[5] = Inhibition of Escherichia coli DnaK ATPase activity
[6] = Inhibition of bovine Hsp70 ATPase activity; set-up: species or system Bos taurus
[7] = as §1

SMILES | EC50 [1] [µM] | EC50 [2] [µM] | also measured
CCOC(=O)C1=C(C)N(CCCC(=O)N[C@H](CC(=O)NCCC(=O)O)c2ccccc2)C(=O)NC1c1ccc(Br)cc1 (some centres undefined) | > 400 | > 400 | 
CCOC(=O)C1=C(C)N(CCCC(=O)OC)C(=O)NC1c1ccc(Br)cc1 (centres undefined) |  |  | Activity [3]: inactive; EC50 [4]: 213 µM
CCOC(=O)C1=C(C)N(CCCC(=O)N[C@H](CC(=O)N[C@H](CC(=O)NCCC(=O)O)c2ccccc2)CC(C)C)C(=O)NC1c1ccc(Br)cc1 (some centres undefined) | > 400 | > 400 | 
CCOC(=O)C1=C(C)N(CCCC(=O)N[C@@H](CCCCN)CC(=O)N[C@H](CC(=O)NCCC(=O)O)[C@@H](C)CC)C(=O)NC1c1ccc(Br)cc1 (some centres undefined) |  |  | Activity [3]: inactive; EC50 [4]: 352 µM
CCOC(=O)C1=C(C)N(CCCC(=O)N[C@@H](CCc2ccccc2)CC(=O)NCCC(=O)O)C(=O)NC1c1ccc(Br)cc1 (some centres undefined) |  |  | Activity [3]: inactive; EC50 [4]: 190 µM
CCOC(=O)C1=C(C)N(CCCC(=O)N[C@@H](CCc2ccccc2)CC(=O)N[C@@H](CCCCN)CC(=O)NCCC(=O)O)C(=O)NC1c1ccc(Br)cc1 (some centres undefined) |  |  | EC50 [5]: 325 µM; EC50 [6]: 265 µM
CCOC(=O)C1=C(C)N(CCCC(=O)N[C@H](CC(=O)N[C@H](CC(=O)NCCC(=O)O)Cc2cccc3ccccc23)C(C)C)C(=O)NC1c1ccc(Br)cc1 (some centres undefined) |  |  | Activity [3]: inactive; EC50 [4]: 255 µM
CCOC(=O)C1=C(C)N(CCCC(=O)O)C(=O)NC1c1ccc(Br)cc1 (centres undefined) | > 400 | > 400 | 
CCOC(=O)C1=C(C)N(CCCC(=O)N[C@@H](CCCCN)CC(=O)N[C@@H](CCc2ccccc2)CC(=O)NCCC(=O)O)C(=O)NC1c1ccc(Br)cc1 (some centres undefined) |  |  | EC50 [5]: 107 µM; EC50 [6]: 105 µM
CCOC(=O)C1=C(C)N(CCCC(=O)N[C@H](CC(=O)NCCC(=O)O)Cc2cccc3ccccc23)C(=O)NC1c1ccc(Br)cc1 (some centres undefined) |  |  | EC50 [7]: 190 µM; EC50 [4]: 179 µM

The next lines start with results.

EC50 [1] [µM] | EC50 [2] [µM] | SMILES | also measured
> 400 | > 400 | CCOC(=O)C1=C(C)N(CCCC(=O)NCCC(=O)NCCC(=O)O)C(=O)NC1c1ccc(Br)cc1 (centres undefined) | 
> 400 | > 400 | CCOC(=O)C1=C(C)N(CCCC(=O)N[C@H](CC(=O)NCCC(=O)O)[C@@H](C)CC)C(=O)NC1c1ccc(Br)cc1 (some centres undefined) | 
> 400 | > 400 | CCOC(=O)C1=C(C)N(CCCC(=O)N[C@H](CC(=O)NCCC(=O)O)C(C)C)C(=O)NC1c1ccc(Br)cc1 (some centres undefined) | 
> 400 | > 400 | CCOC(=O)C1=C(C)N(CCCC(=O)N[C@H](CC(=O)NCCC(=O)O)CC(C)C)C(=O)NC1c1ccc(Br)cc1 (some centres undefined) | 
> 400 | > 400 | CCOC(=O)C1=C(C)N(CCCC(=O)N[C@@H](CCCCN)CC(=O)NCCC(=O)O)C(=O)NC1c1ccc(Br)cc1 (some centres undefined) | 
> 400 | > 400 | CCOC(=O)C1=C(C)N(CCCC(=O)NCCC(=O)NCCC(=O)NCCC(=O)O)C(=O)NC1c1ccc(Br)cc1 (centres undefined) | 
> 400 | > 400 | CCOC(=O)C1=C(C)N(CCCC(=O)N[C@H](CC(=O)N[C@H](CC(=O)NCCC(=O)O)CC(C)C)CC(C)C)C(=O)NC1c1ccc(Br)cc1 (some centres undefined) | 
